One test deals with 15-PGDH (Homo sapiens (Human), UniProt P15428). The test is described as follows: 15-PGDH inhibitory activity (NADH at 340 nm). Type of test: biochemical. Conditions: concentration inhibiting 50% of 15-PGDH activity; purified 15-PGDH, 21 μM PGE2, 0.25 mM NAD+. As to the method: The 15-PGDH cDNA plasmid containing the BamHI of the pGEX-2T expression vector and EcoRI restriction enzyme sites was transfected into E. coli BL-21 LysS by using conventional methods used in the art. Then, the transfected cells were cultured in an LB medium (500 ml) containing 50 μg/ml of ampicillin at a temperature of 37° C. and at a rate of 220 rpm until the OD600 reached 0.6. Then, isopropyl beta-D-thiogalactoxide (1 mM) was added and the cells were further cultured at the temperature of 25° C. for 12 hours. The cells were then centrifuged at the gravity of 4,000 g for 30 minutes at a temperature of 4° C. to collect a cell pellet. The cell pellet was dissolved in 20 ml of cell lysis buffer (containing 1×PBS buffer (pH 7.4): 1 mM EDTA and 0.1 mM DTT) and sonicated at a temperature of 4° C. for 14×10 s. The digested cells were centrifuged at the gravity of 4,000 g for 20 minutes at a temperature of 4° C. The supernatant was then slowly loaded onto a glutathione-sepharose 4B column equilibrated at a temperature of 4° C. with cell lysis buffer [containing 1×PBS buffer (pH 7.4), 1 mM EDTA, and 0.1 mM DTT]. Washing was performed thereon by using a dissolution buffer until the OD280 reached 0.005 or less. Then, 15-PGDH was eluted from the glutathione-sepharose 4B column at room temperature for 5 minutes by using an elution buffer [containing 50 mM Tris-HCl (pH 8.0), 10 mM reduced glutathione, 1 mM EDTA, and 0.1 mM DTT). The concentration of the purified enzyme was measured, and the purification level thereof was confirmed by SDS-PAGE.
Chain of 15-PGDH (P15428 whole entry): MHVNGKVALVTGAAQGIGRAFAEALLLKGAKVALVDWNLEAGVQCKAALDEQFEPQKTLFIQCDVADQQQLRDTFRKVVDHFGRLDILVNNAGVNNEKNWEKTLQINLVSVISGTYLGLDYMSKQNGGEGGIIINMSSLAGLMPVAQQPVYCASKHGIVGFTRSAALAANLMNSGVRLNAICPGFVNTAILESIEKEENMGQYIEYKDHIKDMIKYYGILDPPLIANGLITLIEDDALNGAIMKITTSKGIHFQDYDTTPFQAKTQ
That is, the cells were treated with a solution including 50 mM Tris-HCl (pH 7.5), 0.1 mM DTT, 0.25 mM (NAD+), 10 μg of purified 15-PGDH enzyme, 21 μM PGE2. and various concentrations (0.0001 μM to 64 μM) of the derivative compound according to the present disclosure. In this case, the total volume of the solution was 2 ml. Then, the absorbance of the reaction mixture was recorded at the wavelength of 340 nm. To measure the activity of the derivative compounds according to the present disclosure, which is an inhibitor of 15-PGDH, the average value of NADH absorbance at 340 nm at various concentrations was obtained from a standard curve.
A word on the IC50: it is the concentration at which inhibition is half-maximal. As for `CCOc1cc(/C=C2\SC(=O)NC2=O)ccc1OC(=O)CC1CCCCC1` [Compound 52, (Z)-4-((2,4-dioxothiazolidin-5-ylidene)methyl)-2-ethoxyphenyl 2-cyclohexylacetate], the half-inhibitory concentration (IC50) is 32.8 nM.
Same read-out and setting: the result for `O=C(CCCCc1ccccc1)Oc1cccc(/C=C2\SC(=O)NC2=O)c1Cl` [Compound 90, (Z)-2-chloro-3-((2,4-dioxothiazolidin-5-ylidene)methyl)phenyl 5-phenylpentanoate] reads 46 nM; that for `O=C(CCCc1ccccc1)Oc1ccc(/C=C2\SC(=O)NC2=O)cc1` [Compound 74, (Z)-4-((2,4-dioxothiazolidin-5-ylidene)methyl)phenyl 4-phenylbutanoate], 50.7 nM; that for `CCOc1cc(/C=C2\SC(=O)NC2=O)ccc1OC(=O)CCCCC1CCCCC1` [Compound 55, (Z)-4-((2,4-dioxothiazolidin-5-ylidene)methyl)-2-ethoxyphenyl 5-cyclohexylpentanoate], 34.4 nM.
The compound `O=C(Cc1ccccc1)Oc1ccc(/C=C2\SC(=O)NC2=O)cc1` [Compound 72, (Z)-4-((2,4-dioxothiazolidin-5-ylidene)methyl)phenyl 2-phenylacetate] displayed an IC50 of 108 nM.
The same measure, in the same setting: the result for `CCOc1cc(/C=C2\SC(=O)NC2=O)ccc1OC(=O)C1CCCC1` [Compound 48, (Z)-4-((2,4-dioxothiazolidin-5-ylidene)methyl)-2-ethoxyphenyl cyclopentanecarboxylate] reads 1400 nM; that for `O=C(CCCCc1ccccc1)Oc1ccc(/C=C2\SC(=O)NC2=O)cc1Br` [Compound 30, (Z)-2-bromo-4-((2,4-dioxothiazolidin-5-ylidene)methyl)phenyl 5-phenylpentanoate], 23.5 nM.
The same measure, in the same setting: the result for `O=C(CC1CCCCC1)Oc1ccc(/C=C2\SC(=O)NC2=O)cc1` [Compound 67, (Z)-4-((2,4-dioxothiazolidin-5-ylidene)methyl)phenyl 2-cyclohexylacetate] reads 30.5 nM.
The same measure, in the same setting: the result for `COc1cc(/C=C2\SC(=O)NC2=O)ccc1OC(=O)CCc1ccccc1` [Compound 43, (Z)-4-((2,4-dioxothiazolidin-5-ylidene)methyl)-2-methoxyphenyl 3-phenylpropanoate] reads 28.6 nM; that for `COc1cc(/C=C2\SC(=O)NC2=O)ccc1OC(=O)c1ccccc1.O=C(O)c1ccccc1` [Compound 41, (Z)-4-((2,4-dioxothiazolidin-5-ylidene)methyl)-2-methoxyphenyl benzoate], 151 nM; that for `O=C(CC1CCCCC1)Oc1ccc(/C=C2\SC(=O)NC2=O)c(Cl)c1` [Compound 97, (Z)-3-chloro-4-((2,4-dioxothiazolidin-5-ylidene)methyl)phenyl 2-cyclohexylacetate], 27.7 nM.

The next test relates to A549 cells. The test is described as follows: Measurement of PGE2 concentration in A549 cell medium (ELISA). It counts as cell-based, human. Conditions: PGE2 concentration versus PBS control, 5 μM, 12 hours. As to the method:
A549 cells were subcultured in RPMI 1640 medium (containing+8% fetal bovine serum (FBS) and antibiotic-antimycotic (AA)) for one week, and then, inoculated in a 6-well plate at 2.5×10^5 cells/mL (5×10^5 cells/well) and cultured for 24 hours in a 5% CO2 incubator at a temperature of 37° C. A549 cells are adenocarcinomic human alveolar basal epithelial cells which are derived from lung tissues. When cells were grown to about 80% confluence, a 15-PGDH inhibitor in 1×PBS buffer was injected at a concentration of 5 μM. To compare the results, the same amount of 1×PBS buffer was injected into a negative control, and, the treated cells were cultured in 5% CO2 incubator. After 12 hours, the medium was collected and the collected medium was assayed to measure PGE2 concentration by using an ELISA Kit (Abcam) according to the manufacturer's instructions. The concentration may be expressed as an exact value by plotting the calibration curve by using the absorbance value after diluting the standard in the medium by concentration.
A general note: An ELISA detects its analyte on a solid surface through an enzyme-linked reagent.
As for `CCOc1cc(/C=C2\SC(=O)NC2=O)ccc1OC(=O)CC1CCCCC1` [Compound 52, (Z)-4-((2,4-dioxothiazolidin-5-ylidene)methyl)-2-ethoxyphenyl 2-cyclohexylacetate], the Increment % is −18.49%.
On the same count and under the same terms, with `O=C(CCCCc1ccccc1)Oc1cccc(/C=C2\SC(=O)NC2=O)c1Cl` [Compound 90, (Z)-2-chloro-3-((2,4-dioxothiazolidin-5-ylidene)methyl)phenyl 5-phenylpentanoate] the figure was 98.11%.
Same read-out and setting: with `O=C(CCCc1ccccc1)Oc1ccc(/C=C2\SC(=O)NC2=O)cc1` [Compound 74, (Z)-4-((2,4-dioxothiazolidin-5-ylidene)methyl)phenyl 4-phenylbutanoate] the figure was 27.71%.
For `CCOc1cc(/C=C2\SC(=O)NC2=O)ccc1OC(=O)CCCCC1CCCCC1` [Compound 55, (Z)-4-((2,4-dioxothiazolidin-5-ylidene)methyl)-2-ethoxyphenyl 5-cyclohexylpentanoate], the Increment % is 7.8%.
On to `O=C(Cc1ccccc1)Oc1ccc(/C=C2\SC(=O)NC2=O)cc1` [Compound 72, (Z)-4-((2,4-dioxothiazolidin-5-ylidene)methyl)phenyl 2-phenylacetate], for which the Increment % is −18.07%.
On the same count and under the same terms, the result for `CCOc1cc(/C=C2\SC(=O)NC2=O)ccc1OC(=O)C1CCCC1` [Compound 48, (Z)-4-((2,4-dioxothiazolidin-5-ylidene)methyl)-2-ethoxyphenyl cyclopentanecarboxylate] reads −22.79%; that for `O=C(CCCCc1ccccc1)Oc1ccc(/C=C2\SC(=O)NC2=O)cc1Br` [Compound 30, (Z)-2-bromo-4-((2,4-dioxothiazolidin-5-ylidene)methyl)phenyl 5-phenylpentanoate], 42.35%; that for `O=C(CC1CCCCC1)Oc1ccc(/C=C2\SC(=O)NC2=O)cc1` [Compound 67, (Z)-4-((2,4-dioxothiazolidin-5-ylidene)methyl)phenyl 2-cyclohexylacetate], 8.34%.
Still for that read-out and setting: with `COc1cc(/C=C2\SC(=O)NC2=O)ccc1OC(=O)CCc1ccccc1` [Compound 43, (Z)-4-((2,4-dioxothiazolidin-5-ylidene)methyl)-2-methoxyphenyl 3-phenylpropanoate] the figure was 113.27%; with `COc1cc(/C=C2\SC(=O)NC2=O)ccc1OC(=O)c1ccccc1.O=C(O)c1ccccc1` [Compound 41, (Z)-4-((2,4-dioxothiazolidin-5-ylidene)methyl)-2-methoxyphenyl benzoate], −88.34%.
On the same count and under the same terms, the result for `O=C(CC1CCCCC1)Oc1ccc(/C=C2\SC(=O)NC2=O)c(Cl)c1` [Compound 97, (Z)-3-chloro-4-((2,4-dioxothiazolidin-5-ylidene)methyl)phenyl 2-cyclohexylacetate] reads 8.1011%.

Staying with this test, now noted: inhibitor 5 μM, medium collected after 12 hours, ELISA.
Compound `CCOc1cc(/C=C2\SC(=O)NC2=O)ccc1OC(=O)CC1CCCCC1` [Compound 52, (Z)-4-((2,4-dioxothiazolidin-5-ylidene)methyl)-2-ethoxyphenyl 2-cyclohexylacetate] displayed a PGE2 concentration of 223.32 pg/mL.
For `O=C(CCCCc1ccccc1)Oc1cccc(/C=C2\SC(=O)NC2=O)c1Cl` [Compound 90, (Z)-2-chloro-3-((2,4-dioxothiazolidin-5-ylidene)methyl)phenyl 5-phenylpentanoate], the PGE2 concentration worked out at 416.8478 pg/mL.
Still for that read-out and setting: with `O=C(CCCc1ccccc1)Oc1ccc(/C=C2\SC(=O)NC2=O)cc1` [Compound 74, (Z)-4-((2,4-dioxothiazolidin-5-ylidene)methyl)phenyl 4-phenylbutanoate] the figure was 164.9677 pg/mL; with `CCOc1cc(/C=C2\SC(=O)NC2=O)ccc1OC(=O)CCCCC1CCCCC1` [Compound 55, (Z)-4-((2,4-dioxothiazolidin-5-ylidene)methyl)-2-ethoxyphenyl 5-cyclohexylpentanoate], 295.349 pg/mL; with `O=C(Cc1ccccc1)Oc1ccc(/C=C2\SC(=O)NC2=O)cc1` [Compound 72, (Z)-4-((2,4-dioxothiazolidin-5-ylidene)methyl)phenyl 2-phenylacetate], 105.832 pg/mL.
The compound `CCOc1cc(/C=C2\SC(=O)NC2=O)ccc1OC(=O)C1CCCC1` [Compound 48, (Z)-4-((2,4-dioxothiazolidin-5-ylidene)methyl)-2-ethoxyphenyl cyclopentanecarboxylate] registered a PGE2 concentration of 211.539 pg/mL.
On the same count and under the same terms, the result for `O=C(CCCCc1ccccc1)Oc1ccc(/C=C2\SC(=O)NC2=O)cc1Br` [Compound 30, (Z)-2-bromo-4-((2,4-dioxothiazolidin-5-ylidene)methyl)phenyl 5-phenylpentanoate] reads 280.7203 pg/mL; that for `O=C(CC1CCCCC1)Oc1ccc(/C=C2\SC(=O)NC2=O)cc1` [Compound 67, (Z)-4-((2,4-dioxothiazolidin-5-ylidene)methyl)phenyl 2-cyclohexylacetate], 139.9468 pg/mL; that for `COc1cc(/C=C2\SC(=O)NC2=O)ccc1OC(=O)CCc1ccccc1` [Compound 43, (Z)-4-((2,4-dioxothiazolidin-5-ylidene)methyl)-2-methoxyphenyl 3-phenylpropanoate], 432.4258 pg/mL.
Consider `COc1cc(/C=C2\SC(=O)NC2=O)ccc1OC(=O)c1ccccc1.O=C(O)c1ccccc1` [Compound 41, (Z)-4-((2,4-dioxothiazolidin-5-ylidene)methyl)-2-methoxyphenyl benzoate], for which the PGE2 concentration amounted to 23.64 pg/mL.
Take `O=C(CC1CCCCC1)Oc1ccc(/C=C2\SC(=O)NC2=O)c(Cl)c1` [Compound 97, (Z)-3-chloro-4-((2,4-dioxothiazolidin-5-ylidene)methyl)phenyl 2-cyclohexylacetate]: the PGE2 concentration came out at 120.703 pg/mL.

The values above are taken from patent US10787425B2, “Thiazolidinedione derivative and use thereof” (INDUSTRY-ACADEMIC COOPERATION FOUNDATION CHOSUN UNIVERSITY, priority 2016, dated 2020).
